Experiment: Solubility of 1,2-octanediol in aqueous solution containing an alcohol solvent
Assay type: physicochemical
Conditions: for ability to dissolve 1,2-octanediol compared with HED: aqueous solution containing 10% by weight 1,2-octanediol and 10% by weight 1,2-hexanediol, FIGURE
Protocol: An aqueous solution containing 10% by weight of 1,2-octanediol, which is a water-insoluble alkanediol, was prepared. […] Therefore, the aqueous solution was cloudy.
Five alcohol solvents were each added to 10 g of the aqueous solution until the aqueous solution became transparent. The five alcohol solvents were 1,6-hexanediol (hereinafter referred to as 1,6-HED), 3-methyl-1,5-pentanediol (hereinafter referred to as 3 MPED), 1,5-pentanediol (hereinafter referred to as 1,5-PED), 1,2-hexanediol (hereinafter referred to as HED), and 2,2′-dimethylpropanediol (hereinafter referred to as 2 MPRD).
Another aqueous solution containing 10% by weight of 1,2-octanediol and 10% by weight of 1,2-hexanediol, which is a water-soluble alkanediol, was prepared. The five alcohol solvents were added to this aqueous solution in the same manner as described above until this aqueous solution became transparent.

Row | Structure (SMILES) | ability to dissolve 1,2-octanediol compared with HED | solubility in water (aqueous solution containing 10% by weight)
1 | CC(C)(CO)CO [2 MPRD, 2,2′-dimethylpropanediol] | more capable of dissolving 1,2-octanediol | –
2 | OCCCCCO [1,5-PED, 1,5-pentanediol] | more capable of dissolving 1,2-octanediol | –
3 | CC(CCO)CCO [3 MPED, 3-methyl-1,5-pentanediol] | more capable of dissolving 1,2-octanediol | –
4 | OCCCCCCO [1,6-HED, 1,6-hexanediol] | more capable of dissolving 1,2-octanediol | –
5 | CCCCCCC(O)CO (centres unmarked) [1,2-octanediol] | – | not completely dissolved
